# Values quoted from earlier work as cited in patent US20090221604A1, “Thiazole Compounds and Their Use as PGD2 Antagonists” (priority 2005, published 2009).
# How the values were obtained:
# [1] = tested on: guinea pig; conditions: after oral dosing
# [2] = tested on: allergic conjunctivitis model
# [3] = tested on: asthma model in the guinea pig
smiles,measurement,setting,value
CC1(C)[C@H]2C[C@H](C/C=C\CCCC(=O)O)[C@@H](NC(=O)c3csc4ccc(O)cc34)[C@@H]1C2 [Example S-5751],"early (sneezing, mucosal plasma exudation, nasal blockage) and late (eosinophil infiltration) phase nasal responses",[1],inhibited
same,allergen-induced plasma exudation in the conjunctiva,[2],alleviated
same,antigen-induced eosinophil infiltration into the lung,[3],alleviated
